Data as given in patent publication US20080108686A1, “N-(Ortho-Phenyl)-1-Methyl-3-Difluoromethylpyrazole-4-Carboxanilides And Their Use As Fungicides” (BASF Aktiengesellschaft, priority 2004, published 2008).

What was measured:
Puccinia recondita [1] = experiment: Comparative Test 1: curative activity against brown rust of wheat; type: in vivo; details: curative spray 1 day after inoculation, wheat cultivar Kanzler, assessed after 7 days, comparison with Comp. 35 of EP-A 0 589301, untreated 90%
Procedure: (§1) The active compounds, separately or jointly, were prepared as a stock solution comprising 25 mg of active compound which was made up to 10 ml using a mixture of acetone and/or DMSO and the emulsifier Uniperol® EL (welting agent having an emulsifying and dispersing action based on ethoxylated alkylphenols) in a ratio by volume of solvent/emulsifier of 99:1. The mixture was then made up to 100 ml with water. This stock solution was diluted with the solvent/emulsifier/water mixture described to give the concentration of active compound stated below. Alternatively, the active compounds were employed as a commercial finished formulation and diluted with water to the stated concentration of active compound.
(§2) Curative Activity Against Brown Rust of Wheat Caused by Puccinia recondita
Comp. 35 of EP-A 0 589301 was compared to the compounds 67.1-67.14 according to the invention of table 67. Leaves of potted wheat seedlings of the cultivar “Kanzler” were inoculated with a spore suspension of brown rust (Puccinia recondita). The pots were then placed into a chamber with high atmospheric humidity (90-95%) at 20-22° C. for 24 hours. During this time, the spores germinated and the germ tubes penetrated into the leaf tissue. The next day, the infected plants were sprayed to runoff point with an aqueous suspension having the concentration of active compound stated below. The suspension or emulsion was prepared as described above. After the spray coating had dried on, the test plants were cultivated in a greenhouse at temperatures between 20 and 22° C. and at 65 to 70% relative atmospheric humidity for 7 days. The extent of the rust fungus development on the leaves was then determined.

Leptosphaeria nodorum = experiment: Comparative Test 2: activity against leaf blotch on wheat; type: in vivo; details: protective spray 1 day before inoculation, wheat cultivar Kanzler, assessed after 8 days, untreated 80%
Procedure: as §1
Activity Against Leaf Blotch on Wheat Caused by Leptosphaeria nodorum
Comp. 35 of EP-A 0 589301 was compared to the compounds 67.1-67.14 according to the invention of table 67. Pots of wheat plants of the cultivar “Kanzler” was sprayed to runoff point with an aqueous suspension having the concentration of active compound stated below. The next day, the pots were inoculated with an aqueous spore suspension of Leptosphaeria nodorum (syn. Stagonospora nodorum, Septoria nodorum). The plants were then placed into a chamber at 20° C. and maximum atmospheric humidity. After 8 days, the leaf blotch on the untreated but infected control plants had developed to such an extent that the infection could be determined visually in %.

Botrytis cinerea = experiment: Use Example 2a: activity against gray mold on bell pepper leaves, protective application; type: in vivo; details: protective spray 1 day before inoculation, bell pepper seedlings, assessed after 5 days, untreated 90%
Procedure: as §1
Activity against gray mold on bell pepper leaves caused by Botrytis cinerea, protective application Bell pepper seedlings of the cultivar “Neusiedler Ideal Elite” were, after 2-3 leaves were well developed, sprayed to runoff point with an aqueous suspension having the concentration of active compound stated below. The next day, the treated plants were inoculated with a spore suspension of Botrytis cinerea which comprised 1.7×10^6 spores/ml in a 2% strength aqueous biomalt solution. The test plants were then placed into a dark climatized chamber at 22-24° C. and high atmospheric humidity. After 5 days, the extent of the fungal infection on the leaves could be determined visually in %.

Puccinia recondita [2] = experiment: Use Example 1: curative activity against brown rust of wheat; type: in vivo; details: curative spray 1 day after inoculation, wheat cultivar Kanzler, assessed after 7 days, untreated 90%
Procedure: as §1, §2
Leaves of polted wheat seedlings of the cultivar “Kanzler” were inoculated with a spore suspension of brown rust (Puccinia recondita). The pots were then placed into a chamber with high atmospheric humidity (90-95%) at 20-22° C. for 24 hours. During this time, the spores germinated and the germ tubes penetrated into the leaf tissue. The next day, the infected plants were sprayed to runoff point with an aqueous suspension having the concentration of active compound stated below. The suspension or emulsion was prepared as described above. After the spray coating had dried on, the test plants were cultivated in a greenhouse at temperatures between 20 and 22° C. and at 65 to 70% relative atmospheric humidity for 7 days. The extent of the rust fungus development on the leaves was then determined.

Pyrenophora teres = experiment: Use Example 2b: activity against net blotch of barley, 1 day protective application; type: in vivo; details: protective spray 24 hours before inoculation, barley seedlings, assessed after 6 days, untreated 90%
Procedure: as §1
Activity Against Net Blotch of Barley Caused byPyrenophora teres, 1 day Protective Application
Leaves of potted barley seedlings were sprayed to runoff point with an aqueous suspension having the concentration of active compound stated below. 24 hours after the spray coating had dried on, the test plants were inoculated with an aqueous spore suspension of Pyrenophora [syn. Drechslera] teres, the net blotch pathogen. The test plants were then placed into a greenhouse at temperatures between 20 and 24° C. and 95 to 100% relative atmospheric humidity. After 6 days, the extent of the development of the disease was determined visually in % infection of the total leaf area.

melting point [°C]	SMILES	Infection at PUCCRT K1 at 250 ppm (%) (Puccinia recondita [1])	Infection at LEPTNO P1 at 250 ppm (%) (Leptosphaeria nodorum)	Infection at BOTRCI P1 at 250 ppm (%) (Botrytis cinerea)	Infection at PUCCRT K1 at 250 ppm (%) (Puccinia recondita [2])	Infection at PYRNTE P1 at 250 ppm (%) (Pyrenophora teres)
	Cn1cc(C(=O)Nc2ccccc2-c2ccc(Cl)c(F)c2)c(C(F)F)n1 [Compound 67.12]	0	3	7	0	
	Cn1cc(C(=O)Nc2ccccc2-c2ccc(F)c(Cl)c2)c(C(F)F)n1 [Compound 67.2]	0	3	0	0	
	Cc1cc(F)ccc1-c1ccccc1NC(=O)c1cn(C)nc1C(F)F [Compound 67.10]	0	15	0	0	
	Cn1cc(C(=O)Nc2ccccc2-c2cc(F)ccc2F)c(C(F)F)n1 [Compound 67.6]	0	3	10	0	
	Cn1cc(C(=O)Nc2ccccc2-c2ccc(Cl)cc2F)c(C(F)F)n1 [Compound 67.7]	0	0		0	5
	Cn1cc(C(=O)Nc2ccccc2-c2ccc(F)cc2F)c(C(F)F)n1 [Compound 67.13]	0	3		0	5
	COc1ccc(-c2ccccc2NC(=O)c2cn(C)nc2C(F)F)c(C)c1 [Compound 67.14]	0	5		0	
	Cc1cc(Cl)ccc1-c1ccccc1NC(=O)c1cn(C)nc1C(F)F [Compound 67.8]	0		0	0	
	Cn1cc(C(=O)Nc2ccccc2-c2cc(Cl)cc(Cl)c2)c(C(F)F)n1 [Compound 67.1]	0	25	1	0	
	Cn1cc(C(=O)Nc2ccccc2-c2ccc(Cl)cc2Cl)c(C(F)F)n1 [Compound 67.5]	0	15		0	
	Cn1cc(C(=O)Nc2ccccc2-c2ccc(F)c(F)c2)c(C(F)F)n1 [Compound 67.3]	0	7	1	0	
	Cn1cc(C(=O)Nc2ccccc2-c2ccccc2)c(C(F)F)n1 [reference compound]	25	80			
	Cc1cc(-c2ccccc2NC(=O)c2cn(C)nc2C(F)F)ccc1Cl [Compound 67.9]	3		0	3	
	Cc1cc(-c2ccccc2NC(=O)c2cn(C)nc2C(F)F)ccc1F [Compound 67.11]	0		0	0	
129 to 130	Cn1cc(C(=O)Nc2ccccc2-c2ccc(Cl)c(Cl)c2)c(C(F)F)n1 [Compound 67.4, 3-difluoromethyl-1-methyl-N-(ortho-(3,4-dichlorophenyl)phenyl)-pyrazole-4-carboxamide]	0	3	0	0	
